The values below come from publication PMC10045663, “Synthesis, In Vitro Biological Evaluation of Antiproliferative and Neuroprotective Effects and In Silico Studies of Novel 16E-Arylidene-5α,6α-epoxyepiandrosterone Derivatives” (Biomedicines, 2023).

Molecules are shown by their SMILES. A value given as a limit tells only on which side of the number the result lay.

Assay [1] deals with N27 (rat dopaminergic neuronal cells). Briefly: MTT cell proliferation assay, N27 cells. It counts as cell-based. The following applies: Rattus norvegicus, N27, 72 h, non-tumoral cells, read-out: Estimated IC50, N27. As for the experimental part:
(§1) LNCaP, PC-3, MCF-7, PNT1A, N27, and NHDF cells were obtained from the American Type Culture Collection (ATCC; Manassas, VA, USA) and were cultured in 75 cm^2 culture flasks at 37 °C in a humidified air incubator with 5% CO2. LNCaP, PC-3, PNT1A, and N27 cells, respectively, were cultured in RPMI 1640 medium (Sigma-Aldrich, Inc. St. Louis, MO, USA) with 10% fetal bovine serum (FBS; Sigma-Aldrich, Inc. St. Louis, MO, USA) and 1% of the antibiotic mixture of 10,000 U/mL penicillin G and […] streptomycin (Sp, Sigma-Aldrich, Inc. St. Louis, MO, USA). MCF-7 cells were cultured in DMEM medium (Sigma-Aldrich, Inc. St. Louis, MO, USA) supplemented with 10% fetal bovine serum (FBS; Sigma-Aldrich, Inc. St. Louis, MO, USA) and 1% antibiotic/antimycotic (10,000 U/mL penicillin G, […] streptomycin, and 25 µg/mL amphotericin B: Ab, Sigma-Aldrich, Inc. St. Louis, MO, USA). Finally, NHDF cells were cultured in RPMI 1640 medium supplemented with 10% FBS, 2 mM L-glutamine, 10 mM HEPES, 1 mM sodium pyruvate, and 1% of the antibiotic/antimycotic Ab, and these cells were used in passages 10th to 14th. For all cell types, the medium was renewed every 2 days until cells nearly reached the confluence state. When cells reach approximately 90–95% confluence, they are gently detached by trypsinization (trypsin-EDTA solution: 0.125 g/L of trypsin and 0.02 g/L of EDTA). Before each experiment, viable cells were counted in a Neubauer chamber by a trypan-blue exclusion assay and adequately diluted in the appropriate complete cell culture medium.
(§2) All tested compounds were dissolved in dimethyl sulfoxide (DMSO; Sigma-Aldrich, Inc. St. Louis, MO, USA) at a concentration of 10 mM and stored at 4 °C. From the mother-solutions, the diluted solutions of the compounds, in different concentrations, were prepared in the respective complete culture medium before each experiment.
(§3) After reaching a confluence state, cells were trypsinized and counted by the trypan-blue exclusion assay and then seeded with an initial density of 2 × 10^4 cells/mL in 96-well culture plates (Nunc, Apogent, Denmark) and left to adhere and grow for 48 h. Subsequently, the medium was removed, and the cells were treated with compound solutions (10 and 50 µM for preliminary studies and 0.01, 0.1, 1, 10, 50, and 100 µM for concentration-response studies) in complete culture medium for 72 h. 5-Fluorouracil (5-FU) was used as a positive control, and untreated cells were used as the negative control. Compounds leading to cell proliferation relative to control clearly below 50%, at 10 µM, or clearly below 25%, at 50 µM, in the screening studies were selected to concentration-response studies in tumoral cell lines. Each experiment was performed in quadruplicate and independently at least two times. The in vitro antiproliferative effects were evaluated by the MTT assay (Sigma-Aldrich, Inc. St. Louis, MO, USA). After the incubation period, the medium was removed, and 100 µL of phosphate buffer saline (PBS, NaCl 137 mM; KCl 2.7 mM; Na2HPO4 10 mM; and KH2PO4 1.8 mM in deionized water with a pH adjusted to 7.4) were used to wash the cells. Then, 100 µL of the MTT solution (5 mg/mL) was prepared in the appropriate serum-free medium and added to each well, followed by incubation for 4 h at 37 °C. Hereafter, the MTT containing medium was removed, and the formazan crystals were dissolved in DMSO. Then, the absorbance was measured at 570 nm using a xMarkTM microplate spectrophotometer from BIO-RAD Laboratories. Cell viability values were expressed as percentages relative to the negative control.

The subject of assay [2] is PNT1A (normal prostate cells). As to the kind of experiment: MTT cell proliferation assay, PNT1A cells. It counts as cell-based. The following applies: Homo sapiens, PNT1A, 72 h, non-tumoral cells, read-out: Estimated IC50, PNT1A. As for the experimental part: as §1, §2, §3
Assay [3] deals with MCF-7 cells. As to the kind of experiment: Immunocytochemistry assay, Ki67 staining. Conditions: 48 h. It counts as cell-based. On the procedure: MCF-7 cells were trypsinized and counted by the trypan-blue exclusion assay, and then cells were seeded with an initial density of 3 × 10^4 cells/mL in 24-well culture plates (Nunc, Apogent, Denmark) containing circular coverslips of 10 mm diameter. Following seeding (48 h), cells were treated with 1 and 10 µM concentrations of 5-FU, as positive controls, and steroid 19 for 48 h. Untreated cells were used as a negative control. After this period, photograph shots were acquired at an optical microscope coupled with a digital camera (Supplementary Material, S2). Subsequently, the medium was removed, and cells were fixed with 10% formalin (15 min, room temperature). After fixation, cells were washed three times with PBS, permeabilized, and blocked for non-specific binding sites for 1 h with 0.5% Triton X-100 and 6% BSA at room temperature. Cells were incubated at 4 °C with 30 μL/coverslip of primary antibody, rabbit polyclonal anti-Ki67 (1:50, Abcam Plc.), prepared in 0.3% BSA and 0.1% Triton X-100, overnight. Then, cells were washed three times with PBS and incubated for 1 h, at room temperature, with 30 μL/coverslip of a solution containing the secondary antibody, Alexa Fluor 488 donkey anti-rabbit (1:200, Life Technologies), and the nuclear marker Hoechst-33342 (1:500, Life Technologies) prepared in PBS. Lastly, the coverslips were washed three times with PBS, mounted on a drop of the fluoroshield mounting medium (Abcam, Plc.) on a microscope slide, and left to dry for 24 h. Photomicrographs were taken using an Axio Imager A1 microscope (Carl Zeiss, Göttingen, Germany) with the 40 × objective.

The test system of assay [4] is MCF-7 cells (estrogen-responsive breast cancer cells). Briefly: MTT cell proliferation assay, MCF-7 cells. It counts as cell-based. The following applies: Homo sapiens, MCF7; MTT, 72 h, tumoral cells; read-out: Estimated IC50, MCF-7. As for the experimental part: as §1, §2, §3
Assay [5] has as its system PC-3 cells (androgen-independent prostatic cancer). As to the kind of experiment: MTT cell proliferation assay, PC-3 cells. Conditions: Homo sapiens, PC-3; MTT, 72 h, tumoral cells; read-out: Estimated IC50, PC-3. It is filed as cell-based. As for the experimental part: as §1, §2, §3
In assay [6] the test system is LNCaP cells (androgen-dependent prostatic cancer). Briefly: MTT cell proliferation assay, LNCaP cells. It is filed as cell-based. The following applies: Homo sapiens, LNCaP; MTT, 72 h, tumoral cells; read-out: Estimated IC50, LNCaP. On the procedure:
as §1, §2, §3

Assay [7] has as its system NHDF cells (normal human dermal fibroblasts). Briefly: MTT cell proliferation assay, NHDF cells. It is filed as cell-based. The following applies: Homo sapiens, NHDF, 72 h, non-tumoral cells, read-out: Estimated IC50, NHDF. On the procedure: as §1, §2, §3
Assay [8] concerns MCF-7 cells. Briefly: PI incorporation (propidium iodide staining). It counts as cell-based. The following applies: 48 h. On the procedure:
After 48 h of being seeded at the same conditions explained in the previous (Section 2.2.4), MCF-7 cells were treated with the steroidal derivatives 19 and 5-FU at 1 and 10 µM and maintained in culture for 48 h. Untreated cells were also used as a negative control. Subsequently, cells were incubated with 20 µL/per well of a propidium iodide solution (PI; 1 mg/mL in PBS; Sigma-Aldrich Co. LLC) for 25 min at 37 °C. Then, the medium was removed, and the cells were fixed with 10% formalin for 15 min at room temperature. Cells were washed three times with PBS and incubated with 30 µL/per coverslip of Hoechst-33342 (1:500) for 10 min. After incubation, cells were washed three times with PBS. Coverslips were mounted on a drop of the fluoroshield mounting medium on a microscope slide, left to dry for 24 h, and then visualized in a Zeiss Axio Imager A1 microscope with the 40× objective.

Assay [9] concerns MCF-7 cells. As to the kind of experiment: Nearest neighbor distance analysis with ImageJ. The following applies: MCF-7, 1 and 10 µM, 48 h. It is filed as cell-based. The text has this: The nuclear measurements were achieved by converting 16-bit photomicrographs of Hoechst 33342-stained nuclei in different studied conditions into 8-bit images. Then, these imagens were autothresholded to binary photos using the default “Make binary” function of ImageJ (v. 1.49) software (NIH Image, Bethesda, MD, USA). Cell nuclei that are touching were separated and fragments were discarded based on area through “Analyze Particle” function. This function also provides several other information, such as nuclear area (NA), circumference, and form factor [26]. Furthermore, the “Nearest Neighbor Distance” (NND) was determined. This function allows measuring the distance between each cell nucleus and the nearest ones, providing information about cell distribution.

The test system of assay [10] is T47-D cells (breast cancer). On the set-up: method as in PMID 23635011. Conditions: MTT assay, read-out: IC50 against T47-D cells; cited from earlier work.
Assay [11] deals with KB (nasopharyngeal epidermoid carcinoma). Set-up: method as in PMID 23635011. Conditions: read-out: IC50 against KB cells; cited from earlier work.
A further assay concerns 5AR type 2. On the set-up: method as in PMID 26377677. The following applies: read-out: IC50 against 5AR type 2; cited from earlier work.

With `O=c1[nH]cc(F)c(=O)[nH]1` [Compound 5-FU, 5-Fluorouracil, reference compound], the IC50 in assay [1] is 3.19 µM; in assay [2], 6.48 µM; in [4], 6.3 µM; in assay [5], 21.2 µM; in assay [6], 9.43 µM; in assay [7], 6.34 µM. The “Ki67-positive cells relative to control” value was “none of the compounds significantly affected” in the assay with MCF-7 cells [3] (MCF-7, 1 µM) and “statistically significant decrease” with MCF-7 cells [3] (MCF-7, 10 µM). In addition, the “PI-positive cells relative to the negative control” value is on record as “no significant effect” in the assay with MCF-7 cells [8] (MCF-7, 1 µM) and “significantly increase” with MCF-7 cells [8] (MCF-7, 10 µM). In addition, the “cell distribution (nearest neighbor distance, NND)” value with MCF-7 cells [9] is given as “more random distribution with nuclei more spaced”.
With `CC12CCC3C(CC=C4CC(O)CCC43C)C1C/C(=C\c1ccc(Cl)cc1Cl)C2=O` (stereo not drawn) [Compound 9, (E)-16-(2,4-Dichlorobenzylidene)-3-hydroxy-10,13-dimethyl-1,3,4,7,8,9,10,11,12,13,15,16-dodecahydro-2H-cyclopenta[α]phenanthren-17(14H)-one], the IC50 in [10] was more than 100 µM.
Consider `C[C@]12CC[C@H](O)CC1=CCC1C2CC[C@]2(C)C(=O)/C(=C/c3cccc(Cl)c3)CC12` (stereo partly shown) [reference compound], for which the IC50 in assay [11] was 0.6 µM; in assay [10], 1.7 µM.
For the molecule `CC12CCC3C(CC=C4CC(O)CCC43C)C1C/C(=C\c1ccc([N+](=O)[O-])cc1)C2=O` (stereo not drawn) [Compound 4, (E)-16-(4-Nitrobenzylidene)-3-hydroxy-10,13-dimethyl-1,3,4,7,8,9,10,11,12,13,15,16-dodecahydro-2H-cyclopenta[α]phenanthren-17(14H)-one], in assay [10], the IC50 is more than 100 µM.
Turning to `C[C@]12CCC3C(C[C@@H]4O[C@@]45C[C@@H](O)CC[C@]35C)C1CC=C2C(=O)COC(=O)c1ccc(F)cc1` (stereo partly drawn) [21(p-fluoro)benzoyloxy-5α,6α-epoxy-3β-hydroxypregna-16-en-20-one], the IC50 in the assay with 5AR type 2 was 0.179 µM.

What is called IC50 is the point on the concentration scale where inhibition reaches its midpoint.
